Source: patent US8492087B2, “Method of judging risk for onset of drug-induced granulocytopenia” (Otsuka Pharmaceutical Co., Ltd., priority 2003, dated 2013)

Test system: human IRS-2 gene
Experiment: Association analysis of human IRS-2 gene polymorphisms and granulocytopenia induced by vesnarinone administration
Type: in vivo
Conditions: subjects who had received vesnarinone
Text: In order to find genetic polymorphisms in relation to granulocytopenia attributed to drug administration, there were employed subjects who had received vesnarinone (3,4-dihydro-6-[4-(3,4-dimethoxybenzoy1)-1-piperaziny1]-2(1H)-quinoline).
Among subjects who had received vesnarinone, had orally agreed to cooperate with investigation of the cause for vesnarinone-induced granulocytopenia between May 1991 and October 1996, and had accepted to provide a blood sample, there were employed 84 subjects (male/female ratio=1.21:1) who had again agreed in writing to cooperate with genetic analysis according to ethical guidelines between July 2001 and December 2001. Genomic DNA was extracted from a blood sample (or a cell sample derived therefrom) of each of the subjects who had again agreed described above. through a common method, and was employed for the below-described tests.
Among the subjects, subjects having leukocytes or neutrophils which were decreased to half or less following vesnarinone administration, and having the number of leukocytes of 2,000/mm^3 or less, or the number of neutrophils of 1,000/mm^3 or less were classified as “subjects with granulocytopenia”.
Each of these groups was further classified into two groups according to sex, to thereby become four subgroups; i.e., a group of 13 male with granulocytopenia (group A), a group of 17 female with granulocytopenia (group B), a group of 33 male without granulocytopenia (group C), and a group of 21 female without granulocytopenia (group D).
The allele frequencies in the group of subjects with granulocytopenia were compared to that of subjects without granulocytopenia by the contingency χ square test. The odds ratio was estimated through the Brown method (Brown, C. C., Am. J. Epidemiol., 113: 474-480 (1981)). The 95% confidence interval of odds ratio was calculated through the Woolf method.
In order to determine the genotype distribution, all polymorphisms identified by the discovery above were analyzed in the all subjects described in Example 1 by amplifying the regions containing the polymorphisms with primer sets and sequencing the PCR products under the condition described above.
In addition to the statistical methods employed in Example 1, a pair-wise linkage disequilibrium coefficient (D′=D/Dmax or D/Dmin) was calculated by use of the method by Thompson, et al. (Thompson, E. A., et al., Am. J. Hum. Genet. 42: 113-124 (1988))

subjects with agranulocytosis N (%) (IRS-2 A15870G genotype AA, total 27): 10 (37.0) N (%)
subjects without agranulocytosis N (%) (IRS-2 A15870G genotype AA, total 49): 36 (73.5) N (%)
subjects with agranulocytosis N (%) (IRS-2 A15870G genotype AG + GG, total 27): 17 (63.0) N (%)
subjects without agranulocytosis N (%) (IRS-2 A15870G genotype AG + GG, total 49): 13 (26.5) N (%)
subjects with agranulocytosis N (%) (IRS-2 A29793G genotype AA, total 30): 11 (36.7) N (%)
subjects without agranulocytosis N (%) (IRS-2 A29793G genotype AA, total 53): 39 (73.6) N (%)
subjects with agranulocytosis N (%) (IRS-2 A29793G genotype AG + GG, total 30): 19 (63.3) N (%)
subjects without agranulocytosis N (%) (IRS-2 A29793G genotype AG + GG, total 53): 14 (26.4) N (%)
subjects with agranulocytosis N (%) (IRS-2 A-1164C genotype AA, total 30): 8 (26.7) N (%)
subjects without agranulocytosis N (%) (IRS-2 A-1164C genotype AA, total 49): 29 (59.2) N (%)
subjects with agranulocytosis N (%) (IRS-2 A-1164C genotype AC + CC, total 30): 22 (73.3) N (%)
subjects without agranulocytosis N (%) (IRS-2 A-1164C genotype AC + CC, total 49): 20 (40.8) N (%)
subjects with agranulocytosis N (%) (IRS-2 AT-2510del genotype AT, total 29): 7 (24.1) N (%)
subjects without agranulocytosis N (%) (IRS-2 AT-2510del genotype AT, total 49): 28 (57.1) N (%)
subjects with agranulocytosis N (%) (IRS-2 AT-2510del genotype ATdel + del, total 29): 22 (75.9) N (%)
subjects without agranulocytosis N (%) (IRS-2 AT-2510del genotype ATdel + del, total 49): 21 (42.9) N (%)
subjects with agranulocytosis N (%) (IRS-2 C31532del genotype CC, total 27): 9 (33.3) N (%)
subjects without agranulocytosis N (%) (IRS-2 C31532del genotype CC, total 48): 34 (70.8) N (%)
subjects with agranulocytosis N (%) (IRS-2 C31532del genotype Cdel + del, total 27): 18 (66.7) N (%)
subjects without agranulocytosis N (%) (IRS-2 C31532del genotype Cdel + del, total 48): 14 (29.2) N (%)
subjects with agranulocytosis N (%) (IRS-2 C-4587A genotype CA + AA, total 28): 21 (75.0) N (%)
subjects without agranulocytosis N (%) (IRS-2 C-4587A genotype CA + AA, total 49): 20 (40.8) N (%)
subjects with agranulocytosis N (%) (IRS-2 C-4587A genotype CC, total 28): 7 (25.0) N (%)
subjects without agranulocytosis N (%) (IRS-2 C-4587A genotype CC, total 49): 29 (59.2) N (%)
SMILES: COc1ccc(C(=O)N2CCN(c3ccc4c(c3)CCC(=O)N4)CC2)cc1OC [vesnarinone, 3,4-dihydro-6-[4-(3,4-dimethoxybenzoy1)-1-piperaziny1]-2(1H)-quinoline]
